Measurements reported in publication PMC12626222, “Benzoic and salicylic acids inhibit β-substituted alanine synthase 4;1 in common bean” (Plant Physiology, 2025).
pIC50: −log10 of the molar value. Blank lines part the entries; values can stand above or below the compound they belong to.

Assays:
[1] = biological target: T1, PvBSAS4;1 (beta-substituted alanine synthase 4;1, cytosolic cysteine synthase) (Phaseolus vulgaris, UniProt V7BIJ9); experiment: acid-ninhydrin colorimetric assay of cysteine formation, […] nm; type: biochemical
T1 construct: gene PHAVU_007G185200g

[2] = biological target: T1, PvBSAS4;1 (beta-substituted alanine synthase 4;1, cytosolic cysteine synthase); experiment: X-ray crystal structure, […] Å; type: binding
[3] = biological target: T1, PvBSAS4;1 (beta-substituted alanine synthase 4;1, cytosolic cysteine synthase); experiment: acid-ninhydrin colorimetric assay, Lineweaver-Burk plot; type: biochemical; conditions: 2 to 8 mM O-acetylserine, 1.5 mM sodium sulfide, 100 mM MOPSO pH 7.0, 25 °C; apparent values plotted against benzoic acid concentration

T1 sequence (V7BIJ9 entry or part of it): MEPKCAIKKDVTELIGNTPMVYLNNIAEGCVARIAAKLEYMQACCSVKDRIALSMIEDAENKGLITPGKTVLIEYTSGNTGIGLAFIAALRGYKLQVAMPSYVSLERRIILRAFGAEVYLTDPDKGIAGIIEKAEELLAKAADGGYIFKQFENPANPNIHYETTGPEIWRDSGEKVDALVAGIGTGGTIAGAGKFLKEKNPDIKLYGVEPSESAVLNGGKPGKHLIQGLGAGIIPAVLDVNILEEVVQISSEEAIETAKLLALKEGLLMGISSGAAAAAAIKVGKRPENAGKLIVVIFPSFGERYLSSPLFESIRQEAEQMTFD

pIC50 [1]: 3.22
Structure (SMILES): O=C(O)c1ccccc1O [salicylic acid]

pIC50 [1]: ~3.22
Structure (SMILES): O=C(O)c1ccccc1 [BEZ, benzoic acid]
X-ray crystal structure, 1.60 Å ([2]; co-purified from E. coli, active site, near PLP (internal aldimine), carboxylate bound by Thr76, Ser77, Asn79, Thr80, Gln150): contains the PLP prosthetic group and a molecule of benzoic acid (Fig. 3A)

Structure (SMILES): Cc1ncc(COP(=O)(O)O)c(C=O)c1O [PLP, pyridoxal 5′-phosphate]
X-ray crystal structure, 1.60 Å ([2]; covalent internal aldimine with Lys48, co-purified): PLP is stabilized by a covalent bond to Lys48, creating an internal aldimine

Structure (SMILES): CC(=O)OC[C@H](N)C(=O)O [OAS, O-acetylserine]
Ks app [3]: the replot of Ks app versus the concentration of inhibitor
